row,Structure (SMILES),melting point
1,"O=C1NC(=O)/C(=C/c2ccc(-c3ccc(O)c(C45CC6CC(CC(C6)C4)C5)c3)cc2F)S1 [Compound 42, 4-[3-(1-Adamantyl)-4-hydroxy-phenyl]-6-fluorobenzylidene-2,4-thiazolidinedione]",307 to 309 °C
2,CC1(c2cc(-c3ccc(/C=C4\SC(=O)NC4=O)cn3)ccc2O)CCCCC1 [Compound 47],293 to 295 °C
3,COc1cc(-c2ccc(/C=C3\SC(=O)NC3=O)cn2)cc(C23CC4CC(CC(C4)C2)C3)c1O [Compound 44],211 to 216 °C
4,CC(C)(C)c1cc(-c2ccc(/C=C3\SC(=O)NC3=O)cn2)ccc1O [Compound 40],303 to 304 °C
5,"COc1ccc(-c2ccc(/C=C3\SC(=S)NC3=O)cc2)cc1C12CC3CC(CC(C3)C1)C2 [Compound 6, 4-[3-(1-Adamantyl)-4-methoxyphenyl]-benzylidene-2-thioxo-4-thiazolidinedione]",313 to 317 °C
6,"CC(c1ccc(-c2ccc(O)c(C34CC5CC(CC(C5)C3)C4)c2)nc1)C1SC(=O)NC1=O (stereo not shown) [Compound 52, {1-[6-(3-Adamantan-1-yl-4-hydroxy-phenyl)-pyridin-3-yl]-ethyl}-thiazolidine-2,4-dione]",169 to 171 °C
7,O=C1NC(=O)/C(=C/c2ccc(-c3ccc(O)c(C45CC6CC(CC(C6)C4)C5)c3)nc2)S1 [Compound 33],315 to 318 °C
8,"O=C1NC(=O)/C(=C/c2ccc(-c3ccc(O)c(C45CC6CC(CC(C6)C4)C5)c3)c(Cl)c2)S1 [Compound 48, 4-[3-(1-Adamantyl)-4-hydroxy-phenyl]-5-chlorobenzylidene-2,4thiazolidinedione]",> 280 °C (dec.)
9,"O=C1NC(=O)/C(=C/c2ccc(-c3cc(F)c(O)c(C45CC6CC(CC(C6)C4)C5)c3)cc2)S1 [Compound 34, 4-[3-(1-Adamantyl)-4-hydroxy-5-fluoro-phenyl]benzylidene-2,4-thiazolidinedione]",305 to 308 °C
10,"COc1ccccc1-c1cc(-c2ccc(/C=C3\SC(=O)NC3=O)cc2)cc2c1OCO2 [Compound 4, 4-[3-(2-Methoxyphenyl)-4,5-methylenedioxyphenyl]-benzylidene-2,4-thiazolidinedione]",227 to 228 °C (dec.)
11,"COCOc1ccc(-c2ccc(/C=C3\SC(=O)NC3=O)cc2)cc1C12CC3CC(CC(C3)C1)C2 [Compound 10, 4-[3-(1-Adamantyl)-4-methoxymethoxyphenyl]-benzylidene-2,4-thiazolidinedione]",253 to 254.5 °C
12,"O=C1NC(=O)C(c2ccc3cc(-c4ccc(O)c(C56CC7CC(CC(C7)C5)C6)c4)ccc3c2)S1 (stereo not shown) [Compound 24, 5-[6-(3-[1-Adamantyl]-4-hydroxyphenyl)-naphthalen-2-yl]-2,4-thiazolidinedione]",312 to 314.5 °C
13,"CCOc1cc(/C=C2\SC(=O)NC2=O)ccc1-c1ccc(O)c(C23CC4CC(CC(C4)C2)C3)c1 [Compound 49, 4-[3-(1-Adamantyl)-4-hydroxy-phenyl]-5-ethoxybenzylidene-2,4-thiazolidinedione]",298 to 302 °C

# Results, then the compound that gave them:
row,melting point,Structure (SMILES)
1,> 305 °C (dec.),"Cc1cc(/C=C2\SC(=O)NC2=O)ccc1-c1ccc(O)c(C23CC4CC(CC(C4)C2)C3)c1 [Compound 48, 4-[3-(1-Adamantyl)-4-hydroxy-phenyl]-5-methylbenzylidene-2,4-thiazolidinedione]"
2,224 to 226 °C,"O=C1NC(=O)/C(=C/c2ccc(-c3ccc(O)c(C45CC6CC(CC(C6)C4)C5)c3)c(O)c2)S1 [Compound 35, 4-[3-(1-Adamantyl)-4-hydroxy-phenyl]-5-hydroxybenzylidene-2,4-thiazolidinedione]"
3,167 to 169 °C,"Nc1cc(/C=C2\SC(=O)NC2=O)ccc1-c1ccc(O)c(C23CC4CC(CC(C4)C2)C3)c1 [Compound 51, 4-[3-(1-Adamantyl)-4-hydroxy-phenyl]-5-aminobenzylidene-2,4-thiazolidinedione]"
4,339 to 342 °C,O=C1NC(=O)/C(=C/c2ccc(-c3cc(Cl)c(O)c(C45CC6CC(CC(C6)C4)C5)c3)nc2)S1 [Compound 43]
5,205 to 207 °C,"COc1ccc(-c2ccc3cc(C4SC(=O)NC4=O)ccc3c2)cc1C12CC3CC(CC(C3)C1)C2 (stereo not shown) [Compound 23, 5-[6-(3-[1-Adamantyl]-4-methoxyphenyl)-naphthalen-2-yl]-2,4-thiazolidinedione]"
6,307 to 308.5 °C,"O=C1NC(=O)/C(=C/c2ccc(-c3ccc(O)c(C45CC6CC(CC(C6)C4)C5)c3)cc2)S1 [Compound 7, 4-[3-(1-Adamantyl)-4-hydroxyphenyl]benzylidene-2,4-thiazolidinedione]"
7,181 to 182 °C,"C/C(=C1/SC(=O)NC1=O)c1ccc(-c2ccc(O)c(C34CC5CC(CC(C5)C3)C4)c2)nc1 [Compound 54, (Z)-{1-[6-(3-Adamantan-1-yl-4-hydroxy-phenyl)-pyridin-3-yl]-ethylidene}-thiazolidine-2,4-dione]"
8,262 to 264 °C,"O=C1NC(=O)/C(=C/c2ccc(-c3ccc(O)c(C45CC6CC(CC(C6)C4)C5)c3)c([N+](=O)[O-])c2)S1 [Compound 50, 4-[3-(1-Adamantyl)-4-hydroxy-phenyl]-5-nitrobenzylidene-2,4-thiazolidinedione]"
9,256 to 257 °C,"CC(C)(C)c1cc(-c2ccc(/C=C3\SC(=O)NC3=O)cc2)ccc1O [Compound 39, 4-[3-(t-Butyl)-4-hydroxy-phenyl]benzylidene-2,4-thiazolidinedione]"
10,224 to 225 °C,"C/C(=C1\SC(=O)NC1=O)c1ccc(-c2ccc(O)c(C34CC5CC(CC(C5)C3)C4)c2)nc1 [Compound 55, (E)-{1-[6-(3-Adamantan-1-yl-4-hydroxy-phenyl)-pyridin-3-yl]-ethylidene}-thiazolidine-2,4-dione]"
11,251 to 253 °C,"COc1ccc(-c2ccc3cc(CC4SC(=O)NC4=O)ccc3c2)cc1C12CC3CC(CC(C3)C1)C2 (stereo not shown) [Compound 9, 6-[3-(1-Adamantyl)-4-methoxyphenyl]-naphthalen-2-yl-methyl-2,4-thiazolidinedione]"
12,291 to 293 °C,O=C1NC(=O)/C(=C/c2ccc(-c3cc([N+](=O)[O-])c(O)c(C45CC6CC(CC(C6)C4)C5)c3)nc2)S1 [Compound 53]
13,275 to 280 °C,"Cc1cc(O)c(C23CC4CC(CC(C4)C2)C3)cc1-c1ccc(/C=C2\SC(=O)NC2=O)cc1 [Compound 36, 4-[3-(1-Adamantyl)-4-hydroxy-6-methyl-phenyl]benzylidene-2,4-thiazolidinedione]"
14,307 to 310 °C,O=C1NC(=O)/C(=C/c2ccc(-c3cc(F)c(O)c(C45CC6CC(CC(C6)C4)C5)c3)nc2)S1 [Compound 37]
15,270.5 to 272 °C,"O=C1NC(=O)C(Cc2ccc3cc(-c4ccc(O)c(C56CC7CC(CC(C7)C5)C6)c4)ccc3c2)S1 (stereo not shown) [Compound 16, 6-[3-(1-Adamantyl)-4-hydroxyphenyl]-naphthalen-2-yl-methyl-2,4-thiazolidinedione]"
16,270 to 274 °C,"O=C1NC(=O)/C(=C/c2ccc(-c3ccc(O)c(C45CC6CC(CC(C6)C4)C5)c3)c(F)c2)S1 [Compound 41, 4-[3-(1-Adamantyl)-4-hydroxy-phenyl]-5-fluorobenzylidene-2,4-thiazolidinedione]"
17,323 to 328 °C,"O=C1NC(=O)/C(=C/c2ccc(-c3cc(Cl)c(O)c(C45CC6CC(CC(C6)C4)C5)c3)cc2)S1 [Compound 38, 4-[3-(1-Adamantyl)-4-hydroxy-5-chloro-phenyl]benzylidene-2,4-thiazolidinedione]"
18,238 to 240 °C,"O=C1NC(=O)/C(=C/c2ccc(-c3ccc(O)c(C45CC6CC(CC(C6)C4)C5)c3)c(OC(F)(F)F)c2)S1 [Compound 46, 4-[3-(1-Adamantyl)-4-hydroxy-phenyl]-5-triflouromethoxybenzylidene-2,4-thiazolidinedione]"
